# Source: EP0942896B1, “SUBSTITUTED PHENOLS AND THIOPHENOLS USEFUL AS ANTIOXIDANT AGENTS” (Aventis Pharmaceuticals Inc., priority 1996, dated 1998)
# Read-outs that look alike come from different tables or passages of the source.
# Key:
# [1] = HPLC quantitation of compound and metabolite concentration in rabbit serum and liver; format: in vivo, Female New Zealand White rabbits; settings: female, New Zealand White, oral, 0.4 % in chow, diet 0.4%, 7 days, mean N = 5
# Description: (§1) Perform five independent experiments in the following manner. Each study has a control group and 1-5 groups treated with MDL compound (N = 5 per group). Feed Female New Zealand White rabbits (Hazelton, ∼ 2.0-2.3 kg) 0.2% cholesterol enriched rabbit chow (Purina #5322) with or without 0.4% MDL compound. Solubilize the MDL compounds in 100% ethanol. Spray the chow with the MDL mixtures and allow to dry overnight in a chemical fume hood. Spray control chow with ethanol. Feed rabbits 100 grams food per day for 7 days (0.6% MDL 103,491 were fed for 14 days); make available water ad libitum. On day 7, bleed (~ 2 mL) rabbits (fasted overnight) from a marginal ear vein. Euthanize rabbits by carbon dioxide overdose. Record the total body and liver weights in grams. Record food as grams • day^-1 · rabbit^-1. Use aliquots of fresh serum for clinical chemistries, lipoprotein cholesterol determination, thiobarbituric acid reactive substances (TBARS) and compound and metabolite concentrations in serum. Freeze livers (∼ 5 gram aliquots) at -20°C for compound and metabolite concentration determination at a later time.
# Determine serum and liver concentrations of parent compounds and the metabolites, bisphenol and diphenoquinone, by reverse phase HPLC using a Waters 990 Powerline system. […] Calculate compound concentrations from known quantities of authentic parent compounds after correction for recovery. […]
# [2] = test system: Choleterol-Fed Female New Zealand White Rabbits; test: Hypocholesterolemic effects in cholesterol-fed rabbits: serum cholesterol, lipoprotein cholesterol, triglycerides; format: in vivo; settings: % of control, diet 0.4%, 7 days, 0.2% cholesterol chow, N = 5
# Description: as §1
# Allow blood to clot at room temperature for 30 minutes. Obtain serum after centrifugation for 10 min at 5°C at 3000 rpm in a Beckman GPKR centrifuge with a GH rotor. Analyze by a COBAS MIRA autoanalyzer (Roche Diagnostics) using Roche diagnostic reagents for total cholesterol (CHOL, kit # 44334) and triglyceride (TG, kit # 44120). Calculate cholesterol and triglycerides as mg/dL.
# Separate lipoprotein fractions (very low density lipoprotein, VLDL, low density lipoprotein, LDL and high density lipoprotein, HDL) on a Sepharose 6HR column (1 x 30 cm, Pharmacia) attached to a Waters Powerline HPLC system. Inject serum (50 µL) onto the column and elute with phosphate buffered saline, pH 7.4, at a flow rate of 0.5 mL/min. Add cholesterol reagent (Roche Diagnostics, kit # 44334, diluted with 20 mL water and then with 20 mL of 0.9% saline) at 0.2 mL/min to the post column eluant and incubate in a knitted PFTE Kratos reaction coil (Applied Biosystems) at 37°C for 5 min. Measure absorbance at 500 nm. The lipoprotein subfractions are quantitated as follows: (total serum cholesterol) x (% area under the curve for each subfraction) [formula]
# [3] = test system: oxidation of serum lipids; test: TBARS assay on serum of treated cholesterol-fed rabbits (CuSO4-initiated oxidation); format: in vivo, Female New Zealand White rabbits; settings: % of control, thiobarbituric acid reactive substances as nmole MDA, diet 0.4%, 7 days, N = 5
# Description: as §1, with “Freeze livers (∼ 5 gram aliquots) at -20°C for compound and metabolite concentration determination at a later time.” left out
# TBARS are a […] indication of the oxidation of lipids in a sample. […] Upon incubation with thiobarbituric acid, the absorbance of the aldehydes can be detected at 530-540 nm. […] Measure absorbances at 540 nm using a Biotek model EL311 microplate reader. The nmoles of MDA produced are calculated from a standard curve of 0 to 10 nmoles of MDA prepared from malonaldehyde bis(dimethylacetal). […]
# [4] = Animal parameters (food, body weight, liver weight/body weight) in cholesterol-fed rabbits; format: in vivo, Female New Zealand White rabbits; settings: % of control, diet 0.4%, 7 days, 0.2% cholesterol chow, N = 5
# Description: as §1
smiles,measurement,setting,value
"CC(C)=CCC[C@H](C)CCOc1cc(C(C)(C)C)c(O)c(C(C)(C)C)c1 [MDL 103,294, Phenol, 2,6-bis(1,1-dimethylethyl)-4-[(3,7-dimethyl-6-octenyl)oxy]-, (S)-]",concentration at 7 day,"[1]; parent compound concentration in rabbit liver, read-out: Liver Parent",77000 ng/g
same,concentration at 7 day,"[1]; parent compound concentration in rabbit serum, read-out: Serum Parent",19800 ng/mL
same,HDL,[2]; High Density lipoprotein cholesterol,192%
same,LDL,[2]; Low Density lipoprotein cholesterol,82%
same,chol tot.,"[2]; total cholesterol in serum, fasted overnight",94%
same,TRIG,[2]; triglycerides in serum,197%
same,TBARS,[3],35%
same,food,[4]; grams eaten per day per rabbit,103%
same,lw/bw,[4]; liver weight / body weight,105%
same,body wt.,[4]; weight in grams,100%
